Experiment [1] relates to A. baumannii AR-0273. Nature of the experiment: MIC, broth microdilution (CLSI). Type of experiment: cell-based. The conditions noted are these: Acinetobacter baumannii, AR0273; A. baumannii AR-0273 clinical isolate. The protocol:
(§1) II. Materials and Methods for Biological Experiments
(§2) S. aureus ATCC 29213 and E. coli MG1655 were obtained from the American Type Culture Collection (ATCC). E. coli BW25113 and E. coli JW5503 were obtained from the Keio Collection. AR-bank strains were obtained from the Centers for Disease Control and Prevention and FDA Antibiotic Resistance Isolate Bank.
(§3) Antimicrobial susceptibility tests
(§4) Susceptibility testing was performed in biological triplicate, unless noted otherwise, using the micro-dilution broth method as outlined by the Clinical and Laboratory Standards Institute. Bacteria were cultured with cation-adjusted Mueller Hinton broth (Sigma Aldrich, catalogue number: 90922). […]
(§5) NH3: m/z 391.2 → 171.0. Fabimycin: m/z 405.3 → 145.3. Power analysis was not used to determine the number of replicates. Error bars represent the standard error of the mean of three biological replicates. All compounds evaluated in biological assays were ≥95% pure.

For experiment [2], the system named is E. coli AR-0085. Nature of the experiment: MIC, broth microdilution (CLSI). Type of experiment: cell-based. The conditions noted are these: Escherichia coli, AR0085; E. coli AR-0085 clinical isolate. Here is the method: as §1, §2, §3, §4, §5
Experiment [3] deals with E. coli AR-0048. In words: MIC, broth microdilution (CLSI). In kind it is cell-based. The following applies: Escherichia coli, AR0048; E. coli AR-0048 clinical isolate. The protocol:
as §1, §2, §3, §4, §5
(Dilution methods test growth across graded concentrations, often in twofold steps.)

For experiment [4], the system named is K. pneumoniae AR-0560. Nature of the experiment: MIC, broth microdilution (CLSI). Type of experiment: cell-based. The conditions noted are these: Klebsiella pneumoniae, AR0560; K. pneumoniae AR-0560 clinical isolate. The protocol: as §1, §2, §3, §4, §5
The test system of experiment [5] is A. baumannii AR-0033. Nature of the experiment: MIC, broth microdilution (CLSI). Type of experiment: cell-based. The following applies: Acinetobacter baumannii, AR0033; A. baumannii AR-0033 clinical isolate; † = dose-independent trailing growth. The protocol:
as §1, §2, §3, §4, §5

Experiment [6] relates to E. coli MG1655. Nature of the experiment: MIC, broth microdilution (CLSI). Type of experiment: cell-based. The conditions noted are these: Escherichia coli. Here is the method:
as §1, §2, §3, §4, §5

For experiment [7], the system named is S. aureus ATCC 29213. Nature of the experiment: MIC, broth microdilution (CLSI). Type of experiment: cell-based. The following applies: Staphylococcus aureus, ATCC29213; S. aureus 29213. Here is the method: as §1, §2, §3, §4, §5
Experiment [8] concerns A. baumannii AR-0299. Nature of the experiment: MIC, broth microdilution (CLSI). In kind it is cell-based. The conditions noted are these: Acinetobacter baumannii, AR0299; A. baumannii AR-0299 clinical isolate; † = dose-independent trailing growth. The protocol:
as §1, §2, §3, §4, §5

Experiment [9] relates to K. pneumoniae BAA-2472. Nature of the experiment: MIC, broth microdilution (CLSI). Type of experiment: cell-based. The conditions noted are these: Klebsiella pneumoniae, BAA2472. The protocol:
as §1, §2, §3, §4, §5

Experiment [10] has as its system K. pneumoniae AR-0066. Nature of the experiment: MIC, broth microdilution (CLSI). Type of experiment: cell-based. The following applies: Klebsiella pneumoniae, AR0066; K. pneumoniae AR-0066 clinical isolate. The protocol: as §1, §2, §3, §4, §5
In experiment [11] the test system is K. pneumoniae AR-0113. Nature of the experiment: MIC, broth microdilution (CLSI). Type of experiment: cell-based. The following applies: Klebsiella pneumoniae, AR0113; K. pneumoniae AR-0113 clinical isolate. Here is the method:
as §1, §2, §3, §4
(§6) Error bars represent the standard error of the mean of three biological replicates. All compounds evaluated in biological assays were ≥95% pure.

The subject of experiment [12] is A. baumannii AR-0313. Nature of the experiment: MIC, broth microdilution (CLSI). In kind it is cell-based. The following applies: Acinetobacter baumannii, AR0313; A. baumannii AR-0313 clinical isolate; † = dose-independent trailing growth. Here is the method: as §1, §2, §3, §4, §6
Experiment [13] concerns E. coli ΔtolC (JW5503). Nature of the experiment: MIC, broth microdilution (CLSI). In kind it is cell-based, Escherichia coli. The protocol: as §1, §2, §3, §4, §5
Experiment [14] addresses T1, E. coli FabI (Escherichia coli, UniProt P0AEK4).
T1 construct: His(6) with TEV site (cleaved yes); made in house; host or cells: E. coli BL21(DE3)
Nature of the experiment: In vitro FabI enzymatic inhibition assay. Type of experiment: biochemical. The conditions noted are these: EcFabI; Morrison's quadratic fit; 5 nM enzyme; read-out: Ki app. The protocol: (§7) supplemented with 100 µg/mL ampicillin at 37°C until OD600 reached 0.6-0.7. The cells were induced with 1mM IPTG and incubated for 20 hours at 18°C and spun down at 8000 rpm for 15 minutes. Cell pellet was resuspended in the lysis buffer (50 mM Tris-HCl pH 8.0, 500 mM Na Cl, 20 mM imidazole, 10% glycerol, 0.5 mM TCEP, protease inhibitor and Lysonase) and passed through microfluidizer followed by centrifugation and filtration to remove cell debris. The clarified lysate was supplemented with 20 mM imidazole and passed over a HisTrap column (Cytiva) pre-equilibrated with the wash buffer (50 mM Tris-HCl pH 8.0, 500 mM NaCl, 20 mM imidazole, 10% glycerol, 0.5 mM TCEP). The column was washed with the wash buffer and eluted over a 20-500 mM imidazole gradient. The appropriate fractions were pooled, and the histidine tag was removed by TEV cleavage. The protein mixture was passed over a HisTrap column to separate the cleaved protein from the uncleaved ones. The cleaved protein was pooled and passed over an S75 size exclusion column (GE LifeSciences) pre-equilibrated with 50 mM Tris-HCl pH 8.0, 500 mM NaCl, 0.5 mM TCEP and 10% glycerol. Fractions containing pure protein were pooled, concentrated at 10 mg/mL and stored at -80°C. […]
(§8) In vitro FabI enzymatic inhibition assay
(§9) Recombinant E. coli and A. baummani FabI enzymes were used in a continuous NADH absorbance assay (20 µL in 384w format). Compounds and the Crotonyl-CoA substrate (Sigma–Aldrich 28007) were dispensed into a plate (GeinerBio-One 781101). The reaction was initiated by the addition of a reaction master mix solution containing enzyme and NADH (Sigma–Aldrich N8129) suspended in reaction buffer (50 mM HEPES pH 7.4, 150 mM NaCl, 1 mM EDTA, 0.01 mg/mL BSA, 0.01% Tween). Final concentrations were 5 nM enzyme, 150 μM Crotonyl-CoA, 380 μM NADH, 0.05% DMSO in 1x reaction buffer. After shaking for 5 seconds the reaction was monitored at NADH absorbance (340nm, 25°C) using a Molecular Devices SpectraMax M5 microplate reader. The linear portion of the progress curve was fit using plate-reader software. Percentage activity was calculated relative to DMSO only and no-substrate controls in each plate and the data were fit to Morrison’s quadratic using Graphpad Prism 9.3 to obtain apparent inhibition constant (Ki app) values. […]
(§10) 480 Real-Time PCR System as a function of a temperature ramp (25-95°C; 0.1°/s) and the Tm was calculated using the […]

Experiment [15] deals with A. baumannii FabI (Acinetobacter baumannii, UniProt D0CAD5). Nature of the experiment: In vitro FabI enzymatic inhibition assay. The conditions noted are these: AbFabI; Morrison's quadratic fit; 5 nM enzyme; read-out: Ki app. Type of experiment: biochemical. The protocol: as §7, §8, §9, §10
Experiment [16] relates to E. coli MG1655. Set-up: method as in PMID 31740764. The following applies: cited from earlier work.
The subject of experiment [17] is E. coli MG1655. Nature of the experiment: Serial passaging. Type of experiment: cell-based, Escherichia coli. The following applies: E. coli MG1655, subinhibitory concentration, 21 days. The protocol: Serial passaging procedure was done as reported in literature.5 Briefly, E. coli MG1655 cells were grown in 0.6 mL of MH media containing fabimycin and ciprofloxacin (control) at different concentrations. Cells were added to the respective compounds at 0.25X, 0.5X, 1X, 2X, and 4X to start. At 22-24 hours the cultures were checked for growth. […]
compound at varying concentrations based off of the MIC. This serial passaging was repeated for 21 days. […]
All cells were cultured […]
at 37 °C under a 5% CO2 environment. Cell lines were authenticated by a commercial vendor and inspected visually in house. Cell lines were not tested for Mycoplasma contamination. The media was prepared by the University of Illinois School of Chemical Sciences Cell Media Facility.
H. sapiens HFF-1, A549, and HepG2 cells were seeded (3,000-6,000 cells/well) in a 96-well plate (Greiner Bio-One;

The subject of experiment [18] is A. baumannii clinical isolates (n=100). Nature of the experiment: MIC50/MIC90, clinical isolate panel. In kind it is cell-based. The following applies: Acinetobacter baumannii; A. baumannii (n=100) clinical isolates.
For experiment [19], the system named is K. pneumoniae clinical isolates (n=100). In words: MIC50/MIC90, clinical isolate panel. In kind it is cell-based. The following applies: Klebsiella pneumoniae; K. pneumoniae (n=100) clinical isolates.
Excerpt: Figure 4 Antimicrobial activity of fabimycin against clinical isolates. (A) The susceptibility of clinical isolates (Gram-negative species and S. aureus) to fabimycin, Debio-1452-NH3, and Debio-1452. MICs performed in biological triplicate. (B) Further exploration of the breadth of fabimycin’s antibacterial activity against diverse clinical isolate panels of K. pneumoniae and A. baumannii, as compared to levofloxacin. MICs performed in biological duplicate.
as §1, §2, §3, §4, §6

Structures are written as SMILES. Converted amounts (≈) assume the structure as drawn. Bounds are passed on as bounds.

T1 sequence (P0AEK4 whole entry): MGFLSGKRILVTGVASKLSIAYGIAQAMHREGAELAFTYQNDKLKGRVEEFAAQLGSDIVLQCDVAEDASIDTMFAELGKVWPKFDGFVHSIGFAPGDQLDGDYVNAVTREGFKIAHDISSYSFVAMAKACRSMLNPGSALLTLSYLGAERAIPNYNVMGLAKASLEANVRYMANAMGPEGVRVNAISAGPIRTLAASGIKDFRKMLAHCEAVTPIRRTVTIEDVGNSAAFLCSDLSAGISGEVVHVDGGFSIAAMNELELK
A. baumannii FabI, sequence (D0CAD5 entry or part of it): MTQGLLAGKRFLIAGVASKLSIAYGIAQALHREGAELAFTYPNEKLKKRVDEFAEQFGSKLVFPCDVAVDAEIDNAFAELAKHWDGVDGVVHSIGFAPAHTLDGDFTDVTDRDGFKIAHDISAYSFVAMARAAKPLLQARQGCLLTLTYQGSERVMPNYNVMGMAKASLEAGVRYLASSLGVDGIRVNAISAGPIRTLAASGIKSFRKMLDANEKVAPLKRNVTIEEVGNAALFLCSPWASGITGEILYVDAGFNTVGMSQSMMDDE

As usually defined, the MIC is the least concentration at which growth counts as inhibited. Low readings indicate a more susceptible organism, high ones a less susceptible organism. Take `Cc1c(CN(C)C(=O)/C=C/c2cnc3c(c2)CCC(CN)C(=O)N3)oc2ccccc12` (racemic) [(±)-8]: the MIC stood at 32 µg/mL (≈ 76.5 µM) in experiment [1]; 8 µg/mL (≈ 19.1 µM) in experiment [2]; 16 µg/mL (≈ 38.2 µM) in experiment [3]; 16 µg/mL (≈ 38.2 µM) in [4]; 16 µg/mL (≈ 38.2 µM) in experiment [5]; 8 µg/mL (≈ 19.1 µM) in experiment [6]. The MIC in experiment [7] is 0.031 µg/mL (≈ 0.0741 µM); in experiment [8], 32 µg/mL (≈ 76.5 µM); in experiment [9], 32 µg/mL (≈ 76.5 µM); in [10], 32 µg/mL (≈ 76.5 µM); in experiment [11], 32 µg/mL (≈ 76.5 µM); in experiment [12], greater than 32 µg/mL. This compound returned an MIC in experiment [13] (Escherichia coli) of 0.125 µg/mL (≈ 0.299 µM).

`Cc1c(CN(C)C(=O)/C=C/c2cnc3c(c2)CCC(CCN)C(=O)N3)oc2ccccc12` (racemic) [(±)-9]: the results for the MIC in [6], in experiment [7] and in experiment [13] (Escherichia coli) were 32 µg/mL (≈ 74 µM), 0.062 µg/mL (≈ 0.143 µM) and 0.125 µg/mL (≈ 0.289 µM), respectively.

As for `Cc1c(CN(C)C(=O)/C=C/c2cnc3c(c2)CCC(=O)N3)oc2ccccc12` [Debio-1452, reference compound], the MIC in experiment [1], in [2], in experiment [3], in experiment [4], in experiment [5] and in [8] was greater than 32 µg/mL throughout. The MIC is greater than 32 µg/mL in [9]; greater than 32 µg/mL in [10]; greater than 32 µg/mL in [11]; greater than 32 µg/mL in [12]; 0.062 µg/mL (≈ 0.165 µM) in experiment [13] (E. coli ΔtolC = JW5503, efflux-deficient). Also, the Ki turned out to be 97 ± 19 nM in [14] and 431 ± 85 nM in [15]. Besides, the “accumulation in Gram-negative bacteria (class in Figure 1A)” value in experiment [16] is “Non-accumulator”.

Consider `O=C(O)c1cn(C2CC2)c2cc(N3CCNCC3)c(F)cc2c1=O` [ciprofloxacin, reference compound], for which the “increase in the MIC after serial passaging” value in experiment [17] is 128 fold.

As to `Cc1c(CN(C)C(=O)/C=C/c2cnc3c(c2)CC2(CNC2)C(=O)N3)oc2ccccc12` [compound 2], the MIC in experiment [1] was determined as 8 µg/mL (≈ 19.2 µM); in experiment [2], 4 µg/mL (≈ 9.6 µM); in [3], 8 µg/mL (≈ 19.2 µM); in experiment [4], 16 µg/mL (≈ 38.4 µM); in [5], 8 µg/mL (≈ 19.2 µM); in experiment [6], 4 µg/mL (≈ 9.6 µM). Besides, the MIC in experiment [7] was determined as 0.016 µg/mL (≈ 0.0384 µM); in experiment [8], 16 µg/mL (≈ 38.4 µM); in experiment [9], 8 µg/mL (≈ 19.2 µM); in experiment [10] it was 8 µg/mL (≈ 19.2 µM); in experiment [11], 16 µg/mL (≈ 38.4 µM); in [12], 16 µg/mL (≈ 38.4 µM). The compound further registered an MIC in [13] (Escherichia coli) of 0.031 µg/mL (≈ 0.0744 µM).

What is called MIC50 is an inhibitory concentration at the 50% level, which refers to growth in some studies and to a panel of isolates in others. Lower therefore signals greater potency. A word on the MIC90: it is the lowest concentration that inhibits either 90% of growth or 90% of the strains tested, depending on the study. The low end stands for greater potency, the high end for weaker potency. `C[C@H]1COc2c(N3CCN(C)CC3)c(F)cc3c(=O)c(C(=O)O)cn1c23` [levofloxacin, reference compound]: in experiment [18], the MIC50 was determined as 4 µg/mL (≈ 11.1 µM) and the MIC90 was 32 µg/mL (≈ 88.6 µM). In [19], this compound gave an MIC50 of 0.5 µg/mL (≈ 1.38 µM) and an MIC90 of 32 µg/mL (≈ 88.6 µM).

The record behind these values is paper PMC9413440, “An Iterative Approach Guides Discovery of the FabI Inhibitor Fabimycin, a Late-Stage Antibiotic Candidate with In Vivo Efficacy against Drug-Resistant Gram-Negative Infections” (ACS Central Science, 2022).
